Test results published in the OligoGym collection.
“And” between values parts separate entries of the source, which are not always exact repeats. Identical values can stand only once. After the bases stand the sugars from the 5' end (letter, count) and the backbone: PS all phosphorothioate, else s phosphorothioate and o phosphodiester by linkage. Methylation of C is not given here. e = 2'-O-(2-methoxyethyl) (MOE); d = 2'-deoxy (DNA)

Molecular target: DGAT2
Settings: ASO

## TGCGCGATTCACTGAGGACC (sugars e5 d10 e5, PS)
HepG2, 2.5 µM
  target mRNA inhibition: 51%
HepG2, 10 µM
  target mRNA inhibition: 87%

## TGCTGCTCAGAAGGCCAGGC (sugars e5 d10 e5, PS)
HepG2, 0.12 µM
  target mRNA inhibition: 42%

## TGGAGCTCAGAGACTCAGCC (sugars e2 d16 e2, PS)
HepG2, 0.12 µM
  target mRNA inhibition: 37%

## TGGATGGGAAAGTAGTCTCG (sugars e5 d10 e5, PS)
HepG2, 0.12 µM
  target mRNA inhibition: 40%

## TGGCCCTGTGCTCTGTGGGC (sugars e5 d10 e5, PS)
HepG2, 10 µM
  target mRNA inhibition: 35% and 33%

## TGGCTCAGTTCACCTCCAGG (sugars e5 d10 e5, PS)
HepG2, 2.5 µM
  target mRNA inhibition: 53%
HepG2, 10 µM
  target mRNA inhibition: 86%

## TGGCTTCCTCAGGGCCCACC (sugars e5 d10 e5, PS)
HepG2, 2.5 µM
  target mRNA inhibition: 79%
HepG2, 10 µM
  target mRNA inhibition: 87%

## TGGGAACTTCTTGCTCACTT (sugars e5 d10 e5, PS)
HepG2, 0.12 µM
  target mRNA inhibition: 43%

## TGGTCAGCAGGTTGTGTGTC (sugars e2 d13 e5, PS)
HepG2, 0.12 µM
  target mRNA inhibition: 57%

## TGGTCAGCAGGTTGTGTGTC (sugars e5 d10 e5, PS)
HepG2, 0.12 µM
  target mRNA inhibition: 55% and 43%
HepG2, 2.5 µM
  target mRNA inhibition: 19%
HepG2, 10 µM
  target mRNA inhibition: 72%
HepG2, 20 µM
  target mRNA inhibition: 83%

## TGTGTGACCTTGGGCAAGTT (sugars e5 d10 e5, PS)
HepG2, 2.5 µM
  target mRNA inhibition: 61% and 57%
HepG2, 10 µM
  target mRNA inhibition: 78% and 88%

## TGTGTGTCTTCACCAGCTGG (sugars e5 d10 e5, PS)
HepG2, 0.12 µM
  target mRNA inhibition: 55%
HepG2, 2.5 µM
  target mRNA inhibition: 28%
HepG2, 10 µM
  target mRNA inhibition: 73%
HepG2, 20 µM
  target mRNA inhibition: 94%

## TGTTATCCGAGTTGAATTCT (sugars e5 d10 e5, PS)
HepG2, 0.12 µM
  target mRNA inhibition: 45%

## TTAAATAACCCACAGACACC (sugars e5 d10 e5, PS)
HepG2, 0.12 µM
  target mRNA inhibition: 0%

## TTAAGCTTTGTGACCTTGGG (sugars e5 d10 e5, PS)
HepG2, 0.12 µM
  target mRNA inhibition: 67%

## TTACTCCACCTAGCTCATGG (sugars e5 d10 e5, PS)
HepG2, 0.12 µM
  target mRNA inhibition: 6%

## TTCAAAAAGTAGCTACTGCA (sugars e5 d10 e5, PS)
HepG2, 0.12 µM
  target mRNA inhibition: 47%

## TTCACCAGCTGGATGGGAAA (sugars e5 d10 e5, PS)
HepG2, 0.12 µM
  target mRNA inhibition: 26%

## TTCACCTCCAGGACCTCAGT (sugars e5 d10 e5, PS)
HepG2, 0.12 µM
  target mRNA inhibition: 46%

## TTCATCTTTCCAGATCCGGA (sugars e5 d10 e5, PS)
HepG2, 2.5 µM
  target mRNA inhibition: 71%
HepG2, 10 µM
  target mRNA inhibition: 92%

## TTCCTCATCTATACAGTGGG (sugars e5 d10 e5, PS)
HepG2, 2.5 µM
  target mRNA inhibition: 57% and 72% and 73%
HepG2, 10 µM
  target mRNA inhibition: 89% and 82% and 92%

## TTCCTGGTGGTCAGCAGGTT (sugars e5 d10 e5, PS)
HepG2, 0.12 µM
  target mRNA inhibition: 61%

## TTCGGACCCACTGTGACCTC (sugars e2 d13 e5, PS)
HepG2, 0.12 µM
  target mRNA inhibition: 71%

## TTGAAAGCAAATAGTCTATG (sugars e5 d10 e5, PS)
HepG2, 0.12 µM
  target mRNA inhibition: 42%

## TTGAAATCCAATGCACCTTG (sugars e5 d10 e5, PS)
HepG2, 2.5 µM
  target mRNA inhibition: 62%
HepG2, 10 µM
  target mRNA inhibition: 93%

## TTGCAATGTTGCCATCATAC (sugars e5 d10 e5, PS)
HepG2, 10 µM
  target mRNA inhibition: 96% and 94%

## TTGCCACTCCCATTCTTTGA (sugars e5 d10 e5, PS)
HepG2, 0.12 µM
  target mRNA inhibition: 39% and 57%

## TTGCTTAAACAGATAAGCAC (sugars e5 d10 e5, PS)
HepG2, 0.12 µM
  target mRNA inhibition: 17%

## TTGGAGTAGGGCACCAGCCC (sugars e5 d10 e5, PS)
HepG2, 0.12 µM
  target mRNA inhibition: 16%

## TTGTGTGTCTTCACCAGCTG (sugars e2 d13 e5, PS)
HepG2, 0.12 µM
  target mRNA inhibition: 71%

## TTTCCATTTTTTACCCAACC (sugars e5 d10 e5, PS)
HepG2, 2.5 µM
  target mRNA inhibition: 54%
HepG2, 10 µM
  target mRNA inhibition: 90%

## TTTCCTTCTTAAAAAAGACC (sugars e5 d10 e5, PS)
HepG2, 0.12 µM
  target mRNA inhibition: 9%

## TTTCCTTTGAAATCCAATGC (sugars e5 d10 e5, PS)
HepG2, 2.5 µM
  target mRNA inhibition: 69%
HepG2, 10 µM
  target mRNA inhibition: 90%

## TTTGGATAGTCGATTTACCA (sugars e5 d10 e5, PS)
HepG2, 0.12 µM
  target mRNA inhibition: 41%
